Test results: PMC9140701, “Immunomodulatory Role of BLG-Derived Peptides Based on Simulated Gastrointestinal Digestion and DC-T Cell from Mice Allergic to Cow’s Milk” (Foods, 2022)
Ends that are not written are not given here.

Assays:
[1] = Caco-2 monolayer transport (apparent permeability), normal and IL-1β-induced inflammation model; assay type: in vitro ADME, human; details: human; Caco-2 monolayer, 12-well Transwell, 21 days, TEER > 400 Ω × cm^2, from AP side, 37 °C; within 2 h, at the three time points; normal model and IL-1β-induced inflammation model; three replicates; read-out: apparent permeability coefficient (Papp)
Method: (§1) Caco-2 cells (a human colon adenocarcinoma cell line) were preserved in our lab and cultured in DMEM supplemented with 12% (v/v) FBS (FND500, ExCell Bio, Shanghai, China), 1% (v/v) L-glutamine, 1% (v/v) streptomycin–penicillin, and 1% (v/v) nonessential amino acids at 37 °C and 5% CO2. Caco-2 cells were seeded in 12-well Transwell plates at a density of 2 × 10^5 cells per well. On the 10th to 21st days, the transepithelial electrical resistance (TEER) of each well was detected using a Millicell ERS-2 V-ohm meter (Millipore, Boston, MA, USA). […] The protein profile of cow’s milk after simulated digestion was detected by (A) Tricine-SDS-PAGE. Lane 1: unstained low range protein ladder. Lane 2: pepsin. Lane 3: the cow’s milk. Lane 4: cow’s milk digested in the simulated adult gastrointestinal fluid for 0 min. Lane 5: cow’s milk digested in the simulated adult gastric fluid for 60 min. Lane 6: cow’s milk digested in the simulated adult gastrointestinal fluid for 60 min. Lane 7: cow’s milk digested in the simulated infant gastrointestinal fluid for 0 min. Lane 8: cow’s milk digested in the simulated infant gastric fluid for 60 min. Lane 9: cow’s milk digested in the infant simulated gastrointestinal fluid for 60 min. […] Y-axis value represents the occurrence numbers of amino acids of BLG peptides. (C) The whole amino acid sequence of BLG used in our study; the red letters indicate the areas where unique peptides are present after the simulated digestion of the infants, while the green letters represent unique peptides in the adults’ digestion. (D) The Papp of BLG peptides across Caco-;2 monolayers at 30 min, 1 h, 2 h, 3 h, and 4 h in the normal model and IL-1β-induced inflammation model, respectively. The data were calculated in three replicates. BLG, beta-lactoglobulin. Papp, apparent permeability coefficients.

Caco-2 cell monolayer = test: as above; assay type: in vitro ADME, human; details: integrity check
Method: as §1

| Compound | Papp A→B [1] [×10⁻⁶ cm/s] | fluorescein sodium transport permeability (Caco-2 cell monolayer; Caco-2 monolayer after 21 days, normal mode) [μg/h·cm^2] | fluorescein sodium transport permeability (Caco-2 cell monolayer; Caco-2 monolayer, inflammatory mode (IL-1β 10 ng/mL added on the 21st day, removed after 2 days)) [μg/h·cm^2] |
| --- | --- | --- | --- |
| LIVTQTMKGLDIQK [Peptide A1] | > 2 | – | – |
| MAASDISLLDAQ [Peptide A2] | > 2 | – | – |
| RVYVEELKPTPEGDLEILLQK [Peptide A3] | > 2 | – | – |
| O=C([O-])c1ccccc1-c1c2ccc(=O)cc-2oc2cc([O-])ccc12.[Na+].[Na+] [fluorescein sodium, reference compound] | – | 1.19 | 1.71 |
